Assay results as given in US20220267478A1, “PEPTIDE-LOADED CARRIER SYSTEMS AND USES THEREOF” (Academia Sinica, priority 2019, published 2022).
Values after ≈ are worked out from the molar mass of the structure shown. Ends that are not written are not given here.

Legend:
[1] = Aqueous solubility of peptides; details: for solubility / water solubility (in words): water; for Solubility of unmodified peptide epitope: Table 1
JAWSII dendritic cells = test: Dendritic cell surface marker expression after nanoparticle incubation and LPS stimulation; assay type: cell-based; details: FIG. 24
Description: FIG. 24 includes bar graphs showing the percentage of JAWSII dendritic cells expressing CD80 (upper left panel), CD86 (upper right panel), MHC I (bottom left panel) and MHC II (bottom right panel) assessed by flow cytometric analysis after the cells were co-cultured with the indicated aspirin/peptide formulations.
Dendritic cells were incubated with nanoparticles co-encapsulating adaptor modified OTII peptide and aspirin or adaptor-modified peptides only for 6 h, and then were stimulated with low dose of lipopolysaccharide (“LPS”). Dendritic cell phenotypes were observed 24 h later. See the experimental scheme in FIG. 23.

[2] = from Vasievich et al.; cited from earlier work
CD8 T cells = test: Trp2-specific CD8 T cell response in splenocytes of vaccinated mice (intracellular IFN-γ staining, flow cytometry); assay type: in vivo, C57BL/6 mice; details: peptide in nanoparticles with cdGMP; FIG. 10
Description: The immunogenicity of modified Trp2 peptides was tested by encapsulating them in the aqueous core of hollow thin-shell nanoparticles together with a fixed amount of stimulator of interferon genes (STING) agonist cyclic di-GMP (cdGMP) and injecting them into mice.
The modified Trp2 peptides were as follows: (i) D4-Trp2-D5, (ii) Trp2-D5, (iii) D5-Trp2, (iv) D2G3-Trp2-G3D2, (v) Trp2-G3D3, and (vi) D3G3-Trp2. As Trp2 itself cannot be incorporated into the aqueous core due to its hydrophobicity, a longer Trp2 peptide, namely, Trp2168-195 was encapsulated as a positive control.
Nanoparticles each containing an equivalent dose of one of the Trp2 peptides and cdGMP were prepared as described in Example 1 above and administered to C57BL/6 mice on day 0 and day 21 by subcutaneous injection at the base of the tail. On day 28, splenocytes of the vaccinated mice were isolated and examined for Trp2-specific CD8 T cell immune responses. Briefly, splenocytes from each mouse were challenged with Trp2 peptide and expression of IFN-γ in CD8 T cells was measured by intracellular cytokine staining and flow cytometry.

Molecule: DDDGGGSIINFEKL [D3G3-OVA]
- solubility [1]: 50 mM

Molecule: ISQAVHAAHAEINEAGR [OT-II, ISQAVHAAHAEINEAGR]
- Solubility of unmodified peptide epitope [1]: hydrophilic

Molecule: CC[C@H](C)[C@H](NC(=O)[C@@H](NC(=O)[C@@H](N)CO)[C@@H](C)CC)C(=O)N[C@@H](CC(N)=O)C(=O)N[C@@H](Cc1ccccc1)C(=O)N[C@@H](CCC(=O)O)C(=O)N[C@@H](CCCCN)C(=O)N[C@@H](CC(C)C)C(=O)O [OVA257-264, SIINFEKL]
- Solubility of unmodified peptide epitope [1]: hydrophilic
- solubility [1]: 2 mM (≈ 1930 µg/mL)

Molecule: FQDAYNAAGGHNAVF [Mycobacterium tuberculosis p25, FQDAYNAAGGHNAVF]
- Solubility of unmodified peptide epitope [1]: hydrophobic

Molecule: DDDGGGSVYDFFVWL [D3G3-Trp2, DDDGGGSVYDFFVWL]
- solubility fold higher than the Trp2 peptide ([1]; H2O): over 500 fold
- solubility [1]: > 30 mM

Molecule: SIIVFNLL [Dpagt1, SIIVFNLL]
- Solubility of unmodified peptide epitope [1]: hydrophobic
- water solubility (in words) [1]: poorly soluble

Molecule: KVPRNQDWL [gp100, KVPRNQDWL]
- Solubility of unmodified peptide epitope [1]: hydrophilic

Molecule: lipopolysaccharide [LPS]
- expression of CD80, CD86, MHC I, and MHC II compared to vehicle control (JAWSII dendritic cells): increased expression

Molecule: CC(C)C[C@H](NC(=O)[C@H](Cc1c[nH]c2ccccc12)NC(=O)[C@@H](NC(=O)[C@H](Cc1ccccc1)NC(=O)[C@H](Cc1ccccc1)NC(=O)[C@H](CC(=O)O)NC(=O)[C@H](Cc1ccc(O)cc1)NC(=O)[C@@H](NC(=O)[C@@H](N)CO)C(C)C)C(C)C)C(=O)O [Trp2, SVYDFFVWL]
- maximum solubility in water [2]: 0.06 mM

Molecule: ASMTNMELM [Adpgk, ASMTNMELM]
- Solubility of unmodified peptide epitope [1]: hydrophobic
- water solubility (in words) [1]: poorly soluble

Molecule: QVYSLIRPNENPAHK [influenza virus nucleoprotein NP311, QVYSLIRPNENPAHK]
- Solubility of unmodified peptide epitope [1]: hydrophilic

Molecule: TAYRYHLL [Trp1m, TAYRYHLL]
- Solubility of unmodified peptide epitope [1]: hydrophilic

Molecule: AQLANDVVL [Resp1, AQLANDVVL]
- Solubility of unmodified peptide epitope [1]: hydrophobic
- water solubility (in words) [1]: poorly soluble

Molecule: Trp2168-195: longer Trp2 peptide containing sequences flanking the target epitope 180-188; positive control
- CD8+ T cell response, fold weaker compared to D3G3-Trp2 (CD8 T cells): ~20 fold
